{"source": "patent US20180371550A1", "about": "“LOSS OF TRANSCRIPTIONAL FIDELITY LEADS TO IMMUNOTHERAPY RESISTANCE IN CANCERS” (Children's Hospital Medical Center, priority 2015, published 2018)", "key": {"Cal51 and T47D cells": {"test_system": "Cal51 and T47D cells", "assay": "Immunoblot of RNAP II and histone marks in cells treated with flavopiridol", "type": "cell-based", "conditions": "increasing sublethal doses of flavopiridol for 48 hours, FIG. 15G", "description": "(§1) Total proteins were extracted with RIPA buffer (Santa Cruz Biotechnology, sc-24948), and 15 μg protein from each sample was run in a 4-18% SDS polyacrylamide gel (Bio-Rad), and transferred onto polyvinylidene difluoride membranes. The membranes were blocked in 5% dry milk in tris-buffered saline—Tween 20 for 1 hour. Blocked membranes were incubated overnight with primary antibodies against pSer5-RNA polymerase II (1:1000, Active motif), pSer2-RNA polymerase II (1:1000, Active motif), RNA polymerase II (1:1000, Active motif), SETD2 (1:1000, abcam), CyclinT1 (1:1000, Santa Cruz), H3K36me3 (1:5000, abcam), H3K27me3 (1:5000, Active motif), Pan-acetyl-H3 (1:5000, Cell Signaling), Histone H3 (1:5000, Cell Signaling), pMAPK (1;1000, Cell Signaling), MAPK (1;1000, Cell Signaling), pAKT (1:1000, Cell Signaling), STAT1 (1:1000, Cell Signaling), pSTAT1 (1:1000, Cell Signaling), NF-κB (1:1000, Cell Signaling), pNF-κB (1:1000), Cleaved-PARP(1:1000, Cell Signaling), Caspase-3 (1;1000, Cell Signaling), β-Actin (1;1000, Cell Signaling), GAPDH (1:1000, Cell Signaling) in 5% bovine serum albumin. After washing and incubating with the appropriate secondary antibody (anti-rabbit IgG or anti-Rat IgG (1:5000, Cell signaling)), protein signals were detected with enhanced chemiluminescence (Millipore)."}, "Cal51 cells [1]": {"test_system": "Cal51 cells", "assay": "STAT1 activation after IFN-α stimulation in flavopiridol-treated cells", "type": "cell-based", "conditions": "flavopiridol for 48 hours, then IFN-α for 30 minutes, FIG. 15H", "description": "as §1, with “(Millipore). […]” for “(Millipore).”"}, "Cal51 cells [2]": {"test_system": "Cal51 cells", "assay": "Cytotoxicity assay: relative viability after FasL stimulation with flavopiridol pre-treatment", "type": "cell-based", "conditions": "24 hours FasL, 48 hour pre-treatment with 100 μM flavopiridol, FIG. 15I", "description": "Equal number of cells was seeded into the wells of 96-well culture plates in their corresponding medium and incubated overnight in a 5% CO2 humidified incubator. Cells were then treated with different concentrations of hhis6FasL (0.1 ng/ml-1000 ng/ml) in the presence of 10 μg/ml anti-His antibody (Cell Signaling) for 24 hours. Dead cells were removed by washing with PBS buffer and the attached cells were fixed and stained with crystal violet solution [20% methanol, 0.5% crystal violet (Sigma) in 1× phosphate-buffered saline (PBS)] for 30 min. Excess stain was removed by gently rinsing the plates in tap water, and the plates were dried at room temperature. Crystal violet crystals were redissolved in Triton (Amresco), and cell density was determined by measuring the absorbance at 570 nm in a microplate reader (Bio-Tek Instruments)."}, "[3]": {"test_system": "B16/F10 mouse melanoma cells", "assay": "Testing NK-mediated tumor cell killing in vivo (lung seeding of B16-OVA cells)", "parameters": "species or system C57BL6 mice", "conditions": "FIG. 15J", "description": "C57Bl/6 mice were injected with control or flavopiridol (100 μM) treated 2×10^5 B16-OVA cells into tail veins. One hour later, the lungs were harvested, digested in liberase and the frequency of tumor cells was assessed using quantitative PCR (Shehata et al., 2015). mRNA levels for OVA (B16-OVA) were assessed and normalized to GAPDH. […] Six mice for each group were used. The protocol and use of mice were performed with the approval of the Cincinnati Children's Institutional Animal Care and Use Committee."}}}
{"smiles": "CN1CC[C@H](c2c(O)cc(O)c3c(=O)cc(-c4ccccc4Cl)oc23)[C@H](O)C1", "note": "[flavopiridol]", "values": [{"measurement": "RNAP II and histone marks (epigenetic and transcriptional defects)", "setting": "Cal51 and T47D cells", "result": "widespread epigenetic and transcriptional defects"}, {"measurement": "response to pro-inflammatory stimuli (STAT1 activation)", "setting": "Cal51 cells [1]", "result": "resistance to pro-inflammatory stimuli"}, {"measurement": "relative viability after FasL challenge", "setting": "Cal51 cells [2]", "result": "resistance to pro-inflammatory stimuli and FasL challenge"}, {"measurement": "lung seeding of B16 cells (OVA mRNA normalized to GAPDH, qPCR)", "setting": "[3]; B16-OVA cells treated with flavopiridol (100 μM), tail vein injection into C57Bl/6 mice, lungs after 1 hour, vs control cells", "result": "significantly increased the ability of B16 cells for lung seeding"}, {"measurement": "lung seeding of B16 cells in NK-depleted mice", "setting": "[3]; as E4, mice pre-injected with anti-asialo GM1 (NK depletion)", "result": "the effect was diminished"}]}
